Several values for one entry are separate records, joined by “and”; a condition that tells them apart may be missing. Identical values can stand only once.
System: NCI-H1876 complex spheroid growth, % test/control
Test: Anticancer human tumor NCI-H1876 cell line growth inhibition [Asc];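 also: compound exposure lasted 7 days starting three days after seeding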;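 as to viability, T/C: 100% = DMSO vehicle control wells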
Details: for viability, T/C: stronger effect = lower value; active = viability on the fitted dose curve at most 10% of control; inactive = the rest
How it was run: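 Spheroid model: tumor line + HUVEC + hMSC. Single agents and combinations; top conc. at/near clinical Cmax (10 microM if undetermined), half-log dilutions. DMSO stocks at 800-fold test concentration.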

[1] = curve of first compound, second compound 0.0316 µM
[2] = curve of first compound, second compound 0.1 µM
[3] = curve of first compound, second compound 0.316 µM
[4] = curve of first compound, second compound 1 µM
[5] = second compound 0.0316 µM, first compound 0.0316 µM
[6] = second compound 0.0316 µM, first compound 0.1 µM
[7] = second compound 0.0316 µM, first compound 0.316 µM
[8] = second compound 0.0316 µM, first compound 1 µM
[9] = second compound 0.1 µM, first compound 0.0316 µM
[10] = second compound 0.1 µM, first compound 0.1 µM
[11] = second compound 0.1 µM, first compound 0.316 µM
[12] = second compound 0.1 µM, first compound 1 µM
[13] = second compound 0.316 µM, first compound 0.0316 µM
[14] = second compound 0.316 µM, first compound 0.1 µM
[15] = second compound 0.316 µM, first compound 0.316 µM
[16] = second compound 0.316 µM, first compound 1 µM
[17] = second compound 1 µM, first compound 0.0316 µM
[18] = second compound 1 µM, first compound 0.1 µM
[19] = second compound 1 µM, first compound 0.316 µM
[20] = second compound 1 µM, first compound 1 µM

COc1c(OCCCN2CCOCC2)ccc2c3n(c(=NC(=O)c4cnc(N)nc4)nc12)CCN3 + CNC(C)C(=O)NC1CN(S(=O)(=O)c2cccc(S(=O)(=O)N3CCC4CCC(C(=O)NC(c5ccccc5)c5ccccc5)N4C(=O)C(NC(=O)C(C)NC)C3)c2)CCC2CCC(C(=O)NC(c3ccccc3)c3ccccc3)N2C1=O
> 1000 nM: IC50 (curve of first compound, second compound 0.00316 µM) | IC50 [3]
789 nM: IC50 [1]
901 nM: IC50 [4]
701 nM: IC50 [2]
inactive: viability, T/C (second compound 0.00316 µM, first compound 0.00316 µM) 106% | viability, T/C (second compound 0.00316 µM, first compound 0.01 µM) 107% | viability, T/C (second compound 0.00316 µM, first compound 0.0316 µM) 103% | viability, T/C (second compound 0.00316 µM, first compound 0.1 µM) 81.5% | viability, T/C (second compound 0.00316 µM, first compound 0.316 µM) 64.5% | viability, T/C (second compound 0.00316 µM, first compound 1 µM) 49.2% | viability, T/C (second compound 0.01 µM, first compound 0.00316 µM) 105% | viability, T/C (second compound 0.01 µM, first compound 0.01 µM) 106% | viability, T/C (second compound 0.01 µM, first compound 0.0316 µM) 107% | viability, T/C (second compound 0.01 µM, first compound 0.1 µM) 82.1% | viability, T/C (second compound 0.01 µM, first compound 0.316 µM) 63.3% | viability, T/C (second compound 0.01 µM, first compound 1 µM) 45% | viability, T/C (second compound 0.0316 µM, first compound 0.00316 µM) 100% | viability, T/C (second compound 0.0316 µM, first compound 0.01 µM) 103% | viability, T/C [5] 99.4% | viability, T/C [6] 84.1% | viability, T/C [7] 62.5% | viability, T/C [8] 46.7% | viability, T/C (second compound 0.1 µM, first compound 0.00316 µM) 102% | viability, T/C (second compound 0.1 µM, first compound 0.01 µM) 101% | viability, T/C [9] 98.6% | viability, T/C [10] 82.3% | viability, T/C [11] 63.8% | viability, T/C [12] 44% | viability, T/C (second compound 0.316 µM, first compound 0.00316 µM) 107% | viability, T/C (second compound 0.316 µM, first compound 0.01 µM) 117% | viability, T/C [13] 93.6% | viability, T/C [14] 86.2% | viability, T/C [15] 70% | viability, T/C [16] 56.4% | viability, T/C (second compound 1 µM, first compound 0.00316 µM) 105% | viability, T/C (second compound 1 µM, first compound 0.01 µM) 109% | viability, T/C [17] 96.6% | viability, T/C [18] 86.2% | viability, T/C [19] 67.5% | viability, T/C [20] 48.2%
734 nM: IC50 (curve of first compound, second compound 0.01 µM)

CCN1CCN(Cc2ccc(Nc3ncc(F)c(-c4cc(F)c5nc(C)n(C(C)C)c5c4)n3)nc2)CC1 + CCN1C(C(=O)NC23CCC(C(=O)O)(CC2)CC3)C(c2cccc(Cl)c2F)C2(C(=O)Nc3cc(Cl)ccc32)C12CCCCC2
> 1000 nM: IC50 (curve of first compound, second compound 0.00949 µM) | IC50 (curve of first compound, second compound 0.03 µM) | IC50 (curve of first compound, second compound 0.0949 µM) | IC50 (curve of first compound, second compound 0.3 µM) | IC50 (curve of first compound, second compound 0.949 µM) | IC50 (curve of first compound, second compound 3 µM)
inactive: viability, T/C (second compound 0.00949 µM, first compound 0.00316 µM) 103% | viability, T/C (second compound 0.00949 µM, first compound 0.01 µM) 100% | viability, T/C (second compound 0.00949 µM, first compound 0.0316 µM) 106% | viability, T/C (second compound 0.00949 µM, first compound 0.1 µM) 115% | viability, T/C (second compound 0.00949 µM, first compound 0.316 µM) 115% | viability, T/C (second compound 0.00949 µM, first compound 1 µM) 129% | viability, T/C (second compound 0.03 µM, first compound 0.00316 µM) 102% | viability, T/C (second compound 0.03 µM, first compound 0.01 µM) 102% | viability, T/C (second compound 0.03 µM, first compound 0.0316 µM) 96.1% | viability, T/C (second compound 0.03 µM, first compound 0.1 µM) 113% | viability, T/C (second compound 0.03 µM, first compound 0.316 µM) 123% | viability, T/C (second compound 0.03 µM, first compound 1 µM) 133% | viability, T/C (second compound 0.0949 µM, first compound 0.00316 µM) 105% | viability, T/C (second compound 0.0949 µM, first compound 0.01 µM) 95.9% | viability, T/C (second compound 0.0949 µM, first compound 0.0316 µM) 117% | viability, T/C (second compound 0.0949 µM, first compound 0.1 µM) 109% | viability, T/C (second compound 0.0949 µM, first compound 0.316 µM) 116% | viability, T/C (second compound 0.0949 µM, first compound 1 µM) 127% | viability, T/C (second compound 0.3 µM, first compound 0.00316 µM) 103% | viability, T/C (second compound 0.3 µM, first compound 0.01 µM) 105% | viability, T/C (second compound 0.3 µM, first compound 0.0316 µM) 102% | viability, T/C (second compound 0.3 µM, first compound 0.1 µM) 113% | viability, T/C (second compound 0.3 µM, first compound 0.316 µM) 123% | viability, T/C (second compound 0.3 µM, first compound 1 µM) 129% | viability, T/C (second compound 0.949 µM, first compound 0.00316 µM) 110% | viability, T/C (second compound 0.949 µM, first compound 0.01 µM) 114% | viability, T/C (second compound 0.949 µM, first compound 0.0316 µM) 106% | viability, T/C (second compound 0.949 µM, first compound 0.1 µM) 114% | viability, T/C (second compound 0.949 µM, first compound 0.316 µM) 131% | viability, T/C (second compound 0.949 µM, first compound 1 µM) 122% | viability, T/C (second compound 3 µM, first compound 0.00316 µM) 113% | viability, T/C (second compound 3 µM, first compound 0.01 µM) 99.2% | viability, T/C (second compound 3 µM, first compound 0.0316 µM) 109% | viability, T/C (second compound 3 µM, first compound 0.1 µM) 108% | viability, T/C (second compound 3 µM, first compound 0.316 µM) 116% | viability, T/C (second compound 3 µM, first compound 1 µM) 111%

CCN1C(C(=O)NC23CCC(C(=O)O)(CC2)CC3)C(c2cccc(Cl)c2F)C2(C(=O)Nc3cc(Cl)ccc32)C12CCCCC2 (stereo not drawn)
> 3000 nM: IC50 (compound alone, run of 11/07/2022) | IC50 (curve of compound)
inactive: viability, T/C (compound 0.00949 µM) 109% [middle of 9 runs] | viability, T/C (compound 0.0949 µM) 103% [middle of 9 runs] | viability, T/C (compound 3 µM) 107% [middle of 9 runs]

C=C(F)C(=O)N1CCN(c2nc(OCC3CCCN3C)nc3c2CCN(c2cccc4cccc(Cl)c24)C3)CC1CC#N (stereo not drawn) + Cc1c(S(C)(=O)=O)c(-c2cc(F)cc(N3CCN(c4ccc(NS(=O)(=O)c5ccc(NC(CCN6CCC(C(=O)OCCCP(=O)(O)O)CC6)CSc6ccccc6)c(S(=O)(=O)C(F)(F)F)c5)cc4)CC3)c2)c(-c2ccc(Cl)cc2)n1C(C)C
5150 nM: IC50 (curve of first compound, second compound 3.16 µM)
inactive: viability, T/C [5] 96.7% | viability, T/C [6] 97.8% | viability, T/C [7] 102% | viability, T/C [8] 90.5% | viability, T/C (second compound 0.0316 µM, first compound 3.16 µM) 97.5% | viability, T/C [9] 83.6% | viability, T/C [10] 86.1% | viability, T/C [11] 91.9% | viability, T/C [12] 94% | viability, T/C (second compound 0.1 µM, first compound 3.16 µM) 98.1% | viability, T/C [13] 104% | viability, T/C [14] 94.9% | viability, T/C [15] 96.5% | viability, T/C [16] 98.8% | viability, T/C (second compound 0.316 µM, first compound 3.16 µM) 102% | viability, T/C [17] 91.5% | viability, T/C [18] 97.1% | viability, T/C [19] 94.1% | viability, T/C [20] 92% | viability, T/C (second compound 1 µM, first compound 3.16 µM) 99.3% | viability, T/C (second compound 3.16 µM, first compound 0.0316 µM) 90.6% | viability, T/C (second compound 3.16 µM, first compound 0.1 µM) 93.6% | viability, T/C (second compound 3.16 µM, first compound 0.316 µM) 97.8% | viability, T/C (second compound 3.16 µM, first compound 1 µM) 88.5% | viability, T/C (second compound 3.16 µM, first compound 3.16 µM) 86.6% | viability, T/C (second compound 10 µM, first compound 0.0316 µM) 95.7% | viability, T/C (second compound 10 µM, first compound 0.1 µM) 103% | viability, T/C (second compound 10 µM, first compound 0.316 µM) 81.9% | viability, T/C (second compound 10 µM, first compound 1 µM) 91.3% | viability, T/C (second compound 10 µM, first compound 3.16 µM) 95%
5430 nM: IC50 (curve of first compound, second compound 10 µM)
5700 nM: IC50 [1]
active: viability, T/C (second compound 0.0316 µM, first compound 10 µM) 5.25% | viability, T/C (second compound 0.1 µM, first compound 10 µM) 2.68% | viability, T/C (second compound 0.316 µM, first compound 10 µM) 1.38% | viability, T/C (second compound 1 µM, first compound 10 µM) 2.82% | viability, T/C (second compound 3.16 µM, first compound 10 µM) 0.42% | viability, T/C (second compound 10 µM, first compound 10 µM) 1.21%
5380 nM: IC50 [2]
5540 nM: IC50 [4]
5650 nM: IC50 [3]

NC(=O)C(=Cn1cnc(-c2cc(C(F)(F)F)cc(C(F)(F)F)c2)n1)c1cncnc1
inactive: viability, T/C (compound 0.000949 µM) 104% and 99.4% (2×) | viability, T/C (compound 0.003 µM) 90.3% and 91.5% and 85.9% | viability, T/C (compound 0.00949 µM) 93.9% and 92.5% and 90.8% | viability, T/C (compound 0.03 µM) 92.4% and 98.6% and 97.9% | viability, T/C (compound 0.0949 µM) 97.5% and 80.5% and 104% | viability, T/C (compound 0.3 µM) 74.8% and 77.2% and 94.8%
> 300 nM: IC50 (curve of compound)
